Consider ten compounds from patent publication US6001853A, “Hydroxylamine compositions for the prevention or retardation of cataracts” (priority 1998, dated 1999).

One data set relates to experimental cataracts. Particulars: cited from earlier work.
The test system of data set [1] is rat lenses. The data set is described as follows: Rubidium-86 accumulation by cultured rat lenses (H2O2 stress). Type of data set: cell-based, Sprague-Dawley rat. The following applies: for prevention of decrement in Rb-86 accumulation associated with H2O2 exposure: 0.25 mM H2O2, agent added at beginning of assay; for effect on Rb-86 accumulation of control lenses: added to medium of control lenses at beginning of assay, no H2O2. The method, then: (§1) Such assays are accepted as an indication of the in vivo effect of a drug in retarding the development of cataracts.
(§2) The techniques described in references 10 and 11 were used in this assay. Rat lenses used in these studies were obtained from Sprague-Dawley male rats. The lenses were incubated in 24-well clusters in modified TC-199 medium (prepared as described in Zigler and Hess, Exp. Eye Res. 41:67, 1985) and placed in a 37° C. incubator with a 95% air/5% CO2 humidified atmosphere. The lenses were incubated in about 2.0 ml of culture medium, which was adjusted to about 300 milliosmoles. The assays were usually of 22 hours duration, and tracer levels of ^86 Rb or tritiated choline were added at 18 hours so that the tracer was present during the last four hours of the assay.
Two potential anti-cataract agents were tested in this experiment: E-64 (a protease inhibitor) and pantetheine (a putative phase separation inhibitor) were added to the culture medium at the beginning of the assay.
(§3) The experiment was performed essentially as described for Example 2, except that TEMPOL-H was added at 3 or 4 mM or was added at 3 mM together with MPG at either 0.5 or 1 mM.

In data set [2] the test system is rat lenses. Nature of the data set: Tritiated choline accumulation by cultured rat lenses (H2O2 stress). Particulars: for reduction of the H2O2-induced decrement of tritiated choline concentration: 0.25 mM H2O2, MPG 1 mM, TEMPOL-H 5 mM. Format: cell-based, Sprague-Dawley rat. The method, then:
as §1, §2
(§4) Rat lenses were cultured as described in reference 11 and Example 1. H2 O2 was added to experimental cultures to a concentration of 0.25 mM. Carnosine at 1 mM, MPG at 1 mM, or TEMPOL-H at 5 mM was added to some of the treated lenses at the beginning of the culture assay.
as §3

Data set [3] can be described thus: Systemic/ocular delivery of MPG by osmotic pump, detection in the eye. The following applies: subcutaneous, intraperitoneal and ocular routes; 2 ml of 100 mM over 7 or 14 days. Type of data set: in vivo, Sprague Dawley albino rats. How it is done:
(§5) A 2 ml volume of 100 mM TEMPOL-H was provided in an ALZET osmotic pump, available from Alza Corporation of Palo Alto, Calif. The pump was programmed to deliver the 2 ml dose continuously (down an osmotic gradient) over a period of either 7 or 14 days.
The reducing agent MPG was also delivered to the subjects by subcutaneous, intraperitoneal and ocular routes, as described in Example 7, through an implanted osmotic pump. A 2 ml volume of 100 mM MPG was provided in the pump and delivered over a period of 7 days or 14 days.

The subject of another data set is cells. Particulars: reported by Mitchell and colleagues; cited from earlier work.
A further data set has as its system lens. Nature of the data set: Lens penetration and redox state by EPR of lens homogenate. Format: in vitro ADME, rat.
Description: TEMPOL-H is the reduced form of the nitroxide TEMPOL, which is a stable free radical detectable by electron paramagnetic resonance (EPR) spectroscopy, as in reference 12. TEMPOL-H can be readily converted to TEMPOL by oxidation with ferricyanide, and then can be quantitated by EPR spectroscopy. This provides a ready means of determining whether TEMPOL-H is present in experimental lenses and whether it is in the oxidized or reduced state. […] TEMPOL-H can in turn be oxidized to the nitroxide by dehydrogenases and activated oxygen species, such as singlet oxygen.
as §4
Following lens incubation, lenses were rinsed, then homogenized in buffer and aliquots of the homogenate analyzed by EPR. […] Only following treatment of the lens extract with ferricyanide was the nitroxide detected.

For data set [4], the system named is rat lenses. Format: cell-based. Particulars: 1.0 mM H2O2 plus 4 mM TEMPOL-H, 24 hours. How it is done: Lenses were cultured as in the above examples.
Data set [5] can be described thus: Systemic delivery of TEMPOL-H by osmotic pump, plasma and eye concentrations. Type of data set: in vivo, Sprague Dawley albino rats. Particulars: subcutaneous osmotic pump, 2 ml of 100 mM over 7 or 14 days. How it is done: as §5
In the rats who received subcutaneous delivery of the hydroxylamine, plasma TEMPOL-H concentrations of 0.25 μM were observed.

Another data set concerns lens proteins. The following applies: in vitro; cited from earlier work.
Data set [6] deals with cataracts in x-ray irradiated rats. Particulars: cited from earlier work.

The structures appear in SMILES notation. Read-outs that look alike come from different tables or passages of the source.

As to `CC(C)Cc1ccc(C(C)C(=O)O)cc1` (stereo not shown) [ibuprofen], the “delay of experimental cataracts” value in the data set on experimental cataracts is reported as “shown to delay experimental cataracts”.

In the case of `CC(C)CC(NC(=O)C1OC1C(=O)O)C(=O)NCCCCNC(=N)N` (stereo not shown) [E-64], in the data set with rat lenses [1], the “prevention of decrement in Rb-86 accumulation associated with H2O2 exposure” value is “neither prevented the decrement in accumulation” and the “effect on Rb-86 accumulation of control lenses” value is “small negative effect on Rb-86 accumulation”.

For `OO` [H2 O2, hydrogen peroxide], the “Rb-86 accumulation (internal concentration relative to concentration in the medium)” value in the data set with rat lenses [1] (H2O2 bolus 0.25 mM, normal control lenses more than 7-fold) is on record as 5 fold.

Regarding `CC(S)C(=O)NCC(=O)O` (stereo not shown) [MPG, N-(2-mercaptopropionyl) glycine], the “reduction of the H2O2-induced decrement of tritiated choline concentration” value in the data set with rat lenses [2] is given as “significant reduction in the decrement of tritiated choline concentration”. For the same compound, in data set [3], the “detection of MPG in the eye” value is listed as “detected in the eye”.

On to `CC1(C)CC(O)CC(C)(C)N1[O]` [TEMPOL, 4-hydroxy-2,2,6,6-tetramethylpiperidin-1-yloxy], for which the “protection of cells from oxidative damage” value in the data set with cells is “protects cells from oxidative damage”.

With `CC(=O)Oc1ccccc1C(=O)O` [Aspirin], in the data set with experimental cataracts, the “delay of experimental cataracts” value is recorded as “shown to delay experimental cataracts”.

Turning to `CC1(C)CC(O)CC(C)(C)N1O` [TEMPOL-H], in the data set with rat lenses [1] (TEMPOL-H 3 or 4 mM, or 3 mM with MPG 0.5 or 1 mM (FIG. 6)), the “effect on Rb-86 accumulation in lenses exposed to H2O2, dose response / combination” value is reported as “dose response effect”. For the same compound, the “reduction of the H2O2-induced decrement of tritiated choline concentration” value in the data set on rat lenses [2] is given as “significant reduction in the decrement of tritiated choline concentration”. Also, the “effect on 3H-choline accumulation in lenses exposed to H2O2, dose response / combination” value in the data set with rat lenses [2] (TEMPOL-H 3 or 4 mM, or 3 mM with MPG 0.5 or 1 mM (FIG. 5)) was “dose response effect”. Moreover, the “penetration of the lens from the culture medium” value with lens (EPR after lens incubation, TEMPOL-H 5 mM) was “does penetrate the lens from the culture medium”. For the same compound, the “redox state within the lens” value in the data set with lens (nitroxide detected only following ferricyanide treatment of lens extract) was “the highly reducing environment within the lens keeps the compound in the reduced state”. For the same compound, in the data set on rat lenses [4], the “inhibition of opacification of cultured lenses” value was “clearly and consistently was found to inhibit opacification of the cultured lenses”. In addition, the concentration in data set [5] (read-out: concentration in the eye) came out at 0.02 µM; in data set [5] (read-out: plasma TEMPOL-H concentration), 0.25 µM. In the data set with cells, the “protection of cells from oxidative damage” value is listed as “affords no such protection”.

For `CC(=O)Nc1ccc(O)cc1` [acetaminophen], the “delay of experimental cataracts” value with experimental cataracts was “shown to delay experimental cataracts”.

As for `O=C(O)COc1nn(Cc2ccccc2)c2ccccc12` [Bendazac], the “protection of lens proteins” value with lens proteins was “found to protect lens proteins in vitro”. Also, the “delay of onset of cataracts” value in [6] was “delay the onset of cataracts in x-ray irradiated rats”.

For the compound `CC(C)(CO)[C@@H](O)C(=O)NCCC(=O)NCCS` [pantetheine], in the data set with rat lenses [1], the “prevention of decrement in Rb-86 accumulation associated with H2O2 exposure” value is on record as “neither prevented the decrement in accumulation” and the “effect on Rb-86 accumulation of control lenses” value is given as “small negative effect on Rb-86 accumulation”.
